{
  "source": "patent EP0399909A1",
  "about": "“Cosmetic composition against skin ageing” (ELF SANOFI, priority 1989, dated 1990)",
  "test_system": "fibroblastes de peau humaine (ATCC No CRL 1513)",
  "test": "SAMe formation in cultured human skin fibroblasts with increasing betaine concentrations (HPLC determination)",
  "type": "cell-based",
  "conditions": "for Concentration de SAMe: 6 days culture, control without bétaïne 0,54",
  "method": "L'effet exercé par la bétaïne sur la formation de SAMe a été mis en évidence par les résultats obtenus à des concentrations croissantes de bétaïne dans des fibroblastes de peau humaine (ATCC No CRL 1513) en culture. Plus précisément, les cellules (2.10⁴/ml) ont été mises en culture pendant 6 jours dans 250 ml de milieu de culture Dulbecco's Modified Eagle Medium (DMEM) contenant 20 % de sérum de veau foetal, en présence de concentrations croissantes (de 10⁻⁵ M à 5.10⁻⁴ M) de bétaïne. Au terme de la culture, les cellules ont été décollées à la trypsine (0,05 %) et à l'EDTA (0,02 %) et centrifugées. Le surnageant a été récupéré et précipité à l'acide trichloroacétique (0,2 N, v/v) puis centrifugé à nouveau. Le surnageant a été ensuite récupéré et lyophylisé. Les lyophylisats ont été repris avec de l'eau et analysés en HPLC (Colonne : Nucléosyl C8; Eluant : Solvant A (acétate de sodium 8,2 g; octylsulfonate de sodium 200 mg; acide citrique 4,2 g; EDTA 50 mg; eau q.s. pour 1 litre) 95 % et Solvant B (méthanol) 5 %) en utilisant un détecteur à 260 nm. La quantité de SAMe a été déterminée d'après une gamme étalon traitée dans les mêmes conditions expérimentales.",
  "data": [
    {"smiles": "C[N+](C)(C)CC(=O)[O-]", "note": "[bétaïne, (CH₃)₃N⁺-CH₂-COO⁻]", "values": [
      {"measurement": "Concentration de SAMe", "setting": "Concentration de bétaïne 1 (10⁻⁵ M)", "value": "0,62 nMoles/10⁷ cellules"},
      {"measurement": "Concentration de SAMe", "setting": "Concentration de bétaïne 5 (10⁻⁵ M)", "value": "0,94 nMoles/10⁷ cellules"},
      {"measurement": "Concentration de SAMe", "setting": "Concentration de bétaïne 10 (10⁻⁵ M)", "value": "1,72 nMoles/10⁷ cellules"},
      {"measurement": "Concentration de SAMe", "setting": "Concentration de bétaïne 50 (10⁻⁵ M)", "value": "1,90 nMoles/10⁷ cellules"},
      {"measurement": "quantité d'adémétionine des fibroblastes de peau humaine", "setting": "in vitro, even at very low concentrations", "value": "agit significativement"}
    ]}
  ]
}
